Results on one molecule are retold here after patent publication US7326731B2, “Muscarinic agonists” (Eli Lilly and Company, priority 2002, dated 2008).

The experiment relates to Male Sprague-Dawley rats. Particulars: six-hour delay.

Each structure is given as a SMILES string. Where two headings read alike, the source gives them in different places.

As to `Nc1c2c(nc3ccccc13)CCCC2` [Tacrine, tacrine], the “retention in the eight arm radial maze” value runs as follows: (3 mg/kg s.c. immediately after the sampling phase) “not”; (10 mg/kg s.c. immediately after the sampling phase) “significantly improved retention”.
